Laboratory results published in US20060111335A1, “Photoactivated anti-viral and anti-cancer agent” (priority 2002, published 2006).

Test system: SINV
Test: Photoinactivation of SINV, virus infectivity
Format: cell-based, Sindbis virus
Method: General. The quantity of DNA was determined by the Burton assay (Burton, Biochem. J., 62:315-322 (1956)), and its rhodium content was quantitated using flame atomic absorption spectroscopy (AA). The equilibrium constant for interaction between DPPZPHEN and CT-DNA in the dark was calculated from UV-Vis absorption titration measurements at 380 nm (Wolfe et al., Biochem., 26:6392-6396 (1987); Schemel et al., Biopolymers, 10:465-480 (1971)). Cell viability was determined using the MTT assay (Denizot et al., J. Immunol. Methods, 89:271-277 (1986)). SINV was purified on sucrose gradients as previously described (Owen et al., J. Virol., 70:2757-2763 (1996)). The titer was generally 7-8 log10 pfu/mL at the beginning of each experiment.
Photolysis with SINV. DPPZPHEN/SINV solutions were prepared by adding a 0.3 mL aliquot of a 600 μM DPPZPHEN stock solution in PBS to 3 mL of purified virus at a concentration of 7-8 log10 pfu/mL and bringing the total volume to 4 mL. The DPPZPHEN/SINV solutions were incubated for 2 hours prior to irradiation, following which 3 mL of the […] 100 μL were withdrawn over time and analyzed for virus infectivity. The inactivation rate constant was calculated using simple hit theory (Hiatt, Bacteriol. Rev., 28:150-163 (1964); Houghtaling et al., Photochem. Photobiol., 71:20-28 (2000)). For the studies measuring infectivity of genome RNA, a 6.9 μL aliquot of 0.623 M DPPZPHEN stock solution in DMSO was added to a 100 μL of TE12 wild type […] solution (10 log10 pfu/mL) to obtain a 40 mM DPPZPHEN/virus solution. Aliquots of 50 μL were placed into 250 μL inserts, incubated for 2 hours, and either kept in the dark or irradiated for 60 minutes with light >330 nm. At the completion of the experiment all the samples were diluted with 6 mL 1×PBS buffer and precipitated for 2 hours at 4° C. with 10% PEG+NaCl (200 mM). The PEG precipitated virus was centrifuged at 4° C. for 30 minutes at 14,000 rpm, and the resulting pellet re-suspended in 200 μL of 1×PBS buffer and extracted with equal volumes of phenol and chloroform. The virion RNA was precipitated with ethanol, re-suspended in 100 μL of 1×PBS, and electroporated into about 2×10^7 baby hamster kidney (BHK) cells using 0.2-cm-gap cuvettes. The electroporation utilized 200 Ohms, 1.5 kV, and 25 μF. The cells were incubated at 37° C. for 12 hours in MEM supplemented with 10% fetal calf serum and the viral supernatants were harvested and assayed for the presence of infectious virus by plaque assay.

What does the source list for `[Cl-].[Cl][Rh+]12([Cl])([N]3C=CC=c4ccc5c(c43)[N]1C=CC=5)[N]1C=CC=c3c1c1c(c4nc5ccccc5nc34)=CC=C[N]12` [DPPZPHEN, cis-dichloro(dipyrido[3,2a-2′3′c]phenazine)(1,10-phenantroline) rhodium(III) chloride]?
inactivation rate constant k (simple hit theory) (45 μM, 355 nm irradiation): 2.4×10^−19 photons^−1; reduction in viral titer (45 μM, 355 nm irradiation): 6 log; effect of the metal complex on the virus in the dark (dark): unaffected; rate of photoinactivation under oxygen versus nitrogen (oxygen or nitrogen): the same under either oxygen or nitrogen
